Test results taken from US10208047B2, “Tertiary alcohol imidazopyrazine BTK inhibitors” (Merck Sharp & Dohme Corp., priority 2014, dated 2019).

Biological target: BTK enzyme (recombinant full-length BTK, hBTK) (Homo sapiens (Human), UniProt Q06187)
Experiment: Btk enzyme activity assay, LANCE TR-FRET
Type: biochemical
Conditions: 50 pM hBTK, 2 μM biotin-A5-peptide, 25 μM ATP, 60 minute compound & enzyme incubation, compound range 1 μM to 0.017 nM, read-out: BTK binding IC50
Description: Btk Enzyme Activity Assay Methods
BTK enzymatic activity was determined with the LANCE (Lanthanide Chelate Excite) TR-FRET (Time-resolved fluorescence resonance energy transfer) assay. In this assay, the potency (IC50) of each compound was determined from an eleven point (1:3 serial dilution; final compound concentration range in assay from 1 μM to 0.017 nM) titration curve using the following outlined procedure. To each well of a black non-binding surface Corning 384-well microplate (Corning Catalog #3820), 5 nL of compound (2000 fold dilution in final assay volume of 10 μL) was dispensed, followed by the addition of 7.5 μL of 1× kinase buffer (50 mM Hepes 7.5, 10 mM MgCl2, 0.01% Brij-35, 1 mM EGTA, 0.05% BSA & 1 mM DTT) containing 5.09 pg/μL (66.67 pM) of BTK enzyme (recombinant protein from baculovirus-transfected Sf9 cells: full-length BTK, 6HIS-tag cleaved). Following a 60 minute compound & enzyme incubation, each reaction was initiated by the addition of 2.5 μL 1× kinase buffer containing 8 μM biotinylated “A5” peptide (Biotin-EQEDEPEGDYFEWLE-NH2) (SEQ.ID.NO.: 1), and 100 μM ATP. The final reaction in each well of 10 μL consists of 50 pM hBTK, 2 μM biotin-A5-peptide, and 25 μM ATP. Phosphorylation reactions were allowed to proceed for 120 minutes. Reactions were immediately quenched by the addition of 20 uL of 1× quench buffer (15 mM EDTA, 25 mM Hepes 7.3, and 0.1% Triton X-100) containing detection reagents (0.626 nM of LANCE-Eu-W1024-anti-phosphoTyrosine antibody, PerkinElmer and 86.8 nM of Streptavidin-conjugated Dylight 650, Dyomics/ThermoFisher Scientific). After 60 minutes incubation with detection reagents, reaction plates were read on a PerkinElmer EnVision plate reader using standard TR-FRET protocol. Briefly, excitation of donor molecules (Eu-chelate:anti-phospho-antibody) with a laser light source at 337 nm produces energy that can be transferred to Dylight-650 acceptor molecules if this donor:acceptor pair is within close proximity. Fluorescence intensity at both 665 nm (acceptor) and 615 nm (donor) are measured and a TR-FRET ratio calculated for each well (acceptor intensity/donor intensity). IC50 values were determined by 4 parameter robust fit of TR-FRET ratio values vs. (Log10) compound concentrations.

BTK enzyme (recombinant full-length BTK, hBTK), sequence (Q06187 whole entry): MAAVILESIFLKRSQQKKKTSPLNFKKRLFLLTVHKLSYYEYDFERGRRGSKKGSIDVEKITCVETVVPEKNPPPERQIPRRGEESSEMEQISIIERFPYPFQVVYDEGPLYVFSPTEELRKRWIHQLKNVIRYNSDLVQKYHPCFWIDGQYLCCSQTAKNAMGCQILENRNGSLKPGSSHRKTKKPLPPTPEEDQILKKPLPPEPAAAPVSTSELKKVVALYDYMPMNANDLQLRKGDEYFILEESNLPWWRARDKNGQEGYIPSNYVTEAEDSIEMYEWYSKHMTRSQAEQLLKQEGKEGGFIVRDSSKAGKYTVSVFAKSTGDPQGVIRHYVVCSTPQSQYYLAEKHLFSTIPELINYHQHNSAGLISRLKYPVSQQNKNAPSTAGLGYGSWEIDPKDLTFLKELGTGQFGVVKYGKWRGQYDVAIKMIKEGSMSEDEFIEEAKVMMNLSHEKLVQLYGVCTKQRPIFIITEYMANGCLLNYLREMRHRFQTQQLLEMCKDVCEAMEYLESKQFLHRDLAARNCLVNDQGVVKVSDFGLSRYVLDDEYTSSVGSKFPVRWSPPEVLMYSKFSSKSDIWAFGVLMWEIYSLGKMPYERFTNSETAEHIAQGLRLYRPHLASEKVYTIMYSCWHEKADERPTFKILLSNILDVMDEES

| Compound | IC50 [nM] |
| --- | --- |
| CC1(C(=O)O)CCC(C)(c2nc(-c3ccc([C@@](C)(O)c4cccc(C(F)(F)F)c4)cc3)c3c(N)nccn23)CC1 (stereo partly drawn) [Example 1, (R)-4-(8-amino-1-(4-(1-hydroxy-1-(3-(trifluoromethyl)phenyl)ethyl)phenyl)imidazo[1,5-a]pyrazin-3-yl)-1,4-dimethylcyclohexanecarboxylic acid] | 39.4 |
| C[C@](O)(c1ccc(-c2nc(C34CCC(C(=O)O)(CC3)CC4)n3ccnc(N)c23)cc1)c1cccc(C(F)(F)F)c1 [Example 2, 4-[8-amino-1-(4-{(1S)-1-hydroxy-1-[3-(trifluoromethyl)phenyl]ethyl}phenyl)imidazo[1,5-a]pyrazin-3-yl]bicyclo[2.2.2]octane-1-carboxylic acid] | 5.8 |
| C[C@@](O)(c1ccc(-c2nc(C34CCC(C(=O)O)(CC3)CC4)n3ccnc(N)c23)cc1)c1cccc(C(F)(F)F)c1 [Example 3, 4-[8-amino-1-(4-{(1R)-1-hydroxy-1-[3-(trifluoromethyl)phenyl]ethyl}phenyl)imidazo[1,5-a]pyrazin-3-yl]bicyclo[2.2.2]octane-1-carboxylic acid] | 775 |
| CC(C)[C@]1(C(=O)O)CC[C@H](c2nc(-c3ccc([C@@](C)(O)c4cccc(C(F)(F)F)c4)cc3)c3c(N)nccn23)C1 [Example 5, (1S,3S)-3-[8-amino-1-(4-{(1R)-1-hydroxy-1-[3-(trifluoromethyl)phenyl]ethyl}phenyl)imidazo[1,5-a]pyrazin-3-yl]-1-(1-methylethyl)cyclopentanecarboxylic acid] | 19 |
| C[C@@](O)(c1ccc(-c2nc(C3(C(=O)O)CC3)n3ccnc(N)c23)cc1)c1cccc(C(F)(F)F)c1 [Example 7, 1-[8-amino-1-(4-{(1R)-1-hydroxy-1-[3-(trifluoromethyl)phenyl]ethyl}phenyl)imidazo[1,5-a]pyrazin-3-yl]cyclopropanecarboxylic acid] | 614 |
| C[C@@](O)(c1ccc(-c2nc(C34CCC(C(=O)O)(CC3)C4)n3ccnc(N)c23)cc1)c1cccc(C(F)(F)F)c1 [Example 8, 4-[8-amino-1-(4-{(1R)-1-hydroxy-1-[3-(trifluoromethyl)phenyl]ethyl}phenyl)imidazo[1,5-a]pyrazin-3-yl]bicyclo[2.2.1]heptane-1-carboxylic acid] | 1.1 |
| C[C@@](O)(c1ccc(-c2nc(C34CCCC(C(=O)O)(CC3)CC4)n3ccnc(N)c23)cc1)c1cccc(C(F)(F)F)c1 [Example 9, 5-[8-amino-1-(4-{(1R)-1-hydroxy-1-[3-(trifluoromethyl)phenyl]ethyl}phenyl)imidazo[1,5-a]pyrazin-3-yl]bicyclo[3.2.2]nonane-1-carboxylic acid] | 7 |
| C[C@@](O)(c1ccc(-c2nc(C3(C(=O)O)CCOCC3)n3ccnc(N)c23)cc1)c1cccc(C(F)(F)F)c1 [Example 10, 4-[8-amino-1-(4-{(1R)-1-hydroxy-1-[3-(trifluoromethyl)phenyl]ethyl}phenyl)imidazo[1,5-a]pyrazin-3-yl]tetrahydro-2H-pyran-4-carboxylic acid] | 294 |
| CC1(C)[C@@H](c2nc(-c3ccc([C@@](C)(O)c4cccc(C(F)(F)F)c4)cc3)c3c(N)nccn23)CC[C@@]1(C)C(=O)O [Example 13, (1R,3S)-3-[8-amino-1-(4-{(1R)-1-hydroxy-1-[3-(trifluoromethyl)phenyl]ethyl}phenyl)imidazo[1,5-a]pyrazin-3-yl]-1,2,2-trimethylcyclopentanecarboxylic acid] | 86 |
| CC(C)[C@]1(C(=O)O)CCC[C@@H](c2nc(-c3ccc([C@](C)(O)c4cccc(C(F)(F)F)c4)cc3)c3c(N)nccn23)C1 [Example 14, (1S,3R)-3-[8-amino-1-(4-{(1S)-1-hydroxy-1-[3-(trifluoromethyl)phenyl]ethyl}phenyl)imidazo[1,5-a]pyrazin-3-yl]-1-(1-methylethyl)cyclohexanecarboxylic acid] | 1000 |
| CC(C)[C@@]1(C(=O)O)CCC[C@H](c2nc(-c3ccc([C@](C)(O)c4cccc(C(F)(F)F)c4)cc3)c3c(N)nccn23)C1 [Example 15, (1R,3S)-3-[8-amino-1-(4-{(1S)-1-hydroxy-1-[3-(trifluoromethyl)phenyl]ethyl}phenyl)imidazo[1,5-a]pyrazin-3-yl]-1-(1-methylethyl)cyclohexanecarboxylic acid] | 104 |
| C[C@@]1(C(=O)O)CC[C@](C)(c2nc(-c3ccc([C@@](C)(O)c4cccc(C(F)(F)F)c4)cc3)c3c(N)nccn23)C1 [Example 17, (1R,3S)-3-[8-amino-1-(4-{(1R)-1-hydroxy-1-[3-(trifluoromethyl)phenyl]ethyl}phenyl)imidazo[1,5-a]pyrazin-3-yl]-1,3-dimethylcyclopentanecarboxylic acid] | 55.1 |
| CCOc1cc(C(C)(O)c2cccc(C)c2)ccc1-c1nc(C23CCC(C(=O)O)(CC2)CC3)n2ccnc(N)c12 (stereo not drawn) [Example 20, 4-(8-amino-1-{2-ethoxy-4-[1-hydroxy-1-(3-methylphenyl)ethyl]phenyl}imidazo[1,5-a]pyrazin-3-yl)bicyclo[2.2.2]octane-1-carboxylic acid] | 136 |

Next, values leading:

| IC50 [nM] | Compound |
| --- | --- |
| 1000 | CC(C)[C@]1(C(=O)O)CC[C@H](c2nc(-c3ccc([C@](C)(O)c4cccc(C(F)(F)F)c4)cc3)c3c(N)nccn23)C1 [Example 4, (1S,3S)-3-[8-amino-1-(4-{(1S)-1-hydroxy-1-[3-(trifluoromethyl)phenyl]ethyl}phenyl)imidazo[1,5-a]pyrazin-3-yl]-1-(1-methylethyl)cyclopentanecarboxylic acid] |
| 52 | C[C@@](O)(c1ccc(-c2nc(C34CCC(C(=O)O)(CC3=O)C(=O)C4)n3ccnc(N)c23)cc1)c1cccc(C(F)(F)F)c1 (stereo partly drawn) [Example 6, 4-[8-amino-1-(4-{(1R)-1-hydroxy-1-[3-(trifluoromethyl)phenyl]ethyl}phenyl)imidazo[1,5-a]pyrazin-3-yl]-2,5-dioxobicyclo[2.2.2]octane-1-carboxylic acid] |
| 5 | CC1(C)[C@H](c2nc(-c3ccc([C@@](C)(O)c4cccc(C(F)(F)F)c4)cc3)c3c(N)nccn23)CC[C@]1(C)C(=O)O [Example 11, (1S,3R)-3-[8-amino-1-(4-{(1R)-1-hydroxy-1-[3-(trifluoromethyl)phenyl]ethyl}phenyl)imidazo[1,5-a]pyrazin-3-yl]-1,2,2-trimethylcyclopentanecarboxylic acid] |
| 17.3 | C[C@@](O)(c1ccc(-c2nc(C34CCC(C(=O)O)(CC3(F)F)C(F)(F)C4)n3ccnc(N)c23)cc1)c1cccc(C(F)(F)F)c1 (stereo partly drawn) [Example 12, 4-[8-amino-1-(4-{(1R)-1-hydroxy-1-[3-(trifluoromethyl)phenyl]ethyl}phenyl)imidazo[1,5-a]pyrazin-3-yl]-2,2,5,5-tetrafluorobicyclo[2.2.2]octane-1-carboxylic acid] |
| 7.6 | C[C@]1(C(=O)O)CC[C@](C)(c2nc(-c3ccc([C@@](C)(O)c4cccc(C(F)(F)F)c4)cc3)c3c(N)nccn23)C1 [Example 16, (1S,3S)-3-[8-amino-1-(4-{(1R)-1-hydroxy-1-[3-(trifluoromethyl)phenyl]ethyl}phenyl)imidazo[1,5-a]pyrazin-3-yl]-1,3-dimethylcyclopentanecarboxylic acid] |
| 178 | C[C@]1(C(=O)O)CC[C@@](C)(c2nc(-c3ccc([C@@](C)(O)c4cccc(C(F)(F)F)c4)cc3)c3c(N)nccn23)C1 [Example 18, (1S,3R)-3-[8-amino-1-(4-{(1R)-1-hydroxy-1-[3-(trifluoromethyl)phenyl]ethyl}phenyl)imidazo[1,5-a]pyrazin-3-yl]-1,3-dimethylcyclopentanecarboxylic acid] |
| 4.1 | CCOc1cc(C(C)(O)c2cccc(C)c2)ccc1-c1nc(C23CCC(C(=O)O)(CC2)CC3)n2ccnc(N)c12 (stereo not drawn) [Example 19, 4-(8-amino-1-{2-ethoxy-4-[1-hydroxy-1-(3-methylphenyl)ethyl]phenyl}imidazo[1,5-a]pyrazin-3-yl)bicyclo[2.2.2]octane-1-carboxylic acid] |
| 56.1 | CC(C)[C@H]1CC[C@@H](c2nc(-c3ccc([C@@](C)(O)c4cccc(C(F)(F)F)c4)cc3)c3c(N)nccn23)C[C@H]1C(=O)O [Example 21, (1R,2R,5R)-5-[8-amino-1-(4-{(1R)-1-hydroxy-1-[3-(trifluoromethyl)phenyl]ethyl}phenyl)imidazo[1,5-a]pyrazin-3-yl]-2-(1-methylethyl)cyclohexanecarboxylic acid] |
